Reference: US20240246977A1, “DEGRADATION OF BRUTON'S TYROSINE KINASE (BTK) BY CONJUGATION OF BTK INHIBITORS WITH E3 LIGASE LIGAND AND METHOD OF USE” (BeiGene Switzerland GmbH, priority 2021, published 2024)

Legend:
HEK-293 cells = experiment: HEK-293 cytotoxicity detection (CellTiter-Glo); assay type: cell-based; conditions: Homo sapiens, 72 h, 72 h incubation, CellTiter-Glo luminescence, read-out: HEK293
Procedure, shortened: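 HEK-293 cells exposed 72 h to 8 compounds doses (4-fold dilutions, top stock 5 mM at 500×) in 0.2% DMSO. Viability by CellTiter-Glo luminescence; inhibition normalised to DMSO high control and low control, IC50 from four-parameter curve fit.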

BTK = BTK (Homo sapiens, UniProt Q06187); experiment: BTK cell degradation in TMD-8 cells, HTRF assay; assay type: cell-based; set-up: endogenous in cells; host or cells: TMD-8 cells; conditions: 6 h treatment, IC50 (DC50) of BTK degradation
BTK, sequence (Q06187 whole entry): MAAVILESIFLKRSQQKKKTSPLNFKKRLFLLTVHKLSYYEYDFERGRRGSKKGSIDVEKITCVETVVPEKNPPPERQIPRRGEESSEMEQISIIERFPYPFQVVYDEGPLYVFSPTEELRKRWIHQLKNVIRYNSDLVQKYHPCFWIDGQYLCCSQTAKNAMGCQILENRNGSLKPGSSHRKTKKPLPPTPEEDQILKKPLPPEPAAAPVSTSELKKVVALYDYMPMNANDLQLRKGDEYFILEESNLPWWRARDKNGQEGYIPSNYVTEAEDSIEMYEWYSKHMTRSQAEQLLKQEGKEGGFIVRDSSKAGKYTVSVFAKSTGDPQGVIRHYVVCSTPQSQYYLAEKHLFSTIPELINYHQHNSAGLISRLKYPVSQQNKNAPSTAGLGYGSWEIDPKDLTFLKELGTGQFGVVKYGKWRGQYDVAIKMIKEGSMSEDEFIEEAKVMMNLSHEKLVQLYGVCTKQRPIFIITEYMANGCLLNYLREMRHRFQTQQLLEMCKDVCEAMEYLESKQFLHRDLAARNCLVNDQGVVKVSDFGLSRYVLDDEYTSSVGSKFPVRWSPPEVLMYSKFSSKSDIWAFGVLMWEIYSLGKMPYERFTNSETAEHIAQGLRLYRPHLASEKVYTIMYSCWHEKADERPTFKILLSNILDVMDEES
Procedure, shortened: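 TMD-8 cells treated 6 h with 8-dose series (6-fold dilutions, 0.2% DMSO final), then lysed and BTK quantified by HTRF (337/665/620 nm) after overnight antibody incubation at room temperature. Degradation normalized to DMSO high and low controls; DC50 and Dmax from four-parameter fit.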

Row | Structure (SMILES) | DC50 (BTK) | IC50 (HEK-293 cells)
1 | Cc1c(C(=O)Nc2ncnn2C)ccc(-c2nn3c(c2C(N)=O)Nc2ccc(N4CCN(CC5CCN(c6ccc(N7CCC(=O)NC7=O)cc6)CC5)CC4)cc2CC3)c1F [Example B93, 7-(4-((1-(4-(2,4-dioxotetrahydropyrimidin-1(2H)-yl)phenyl)piperidin-4-yl)methyl)piperazin-1-yl)-2-(2-fluoro-3-methyl-4-((1-methyl-1H-1,2,4-triazol-5-yl)carbamoyl)phenyl)-9,10-dihydro-4H-benzo[d]pyrazolo[1,5-a][1,3]diazepine-3-carboxamide] | 3.77 nM | > 10000 nM
2 | Cc1cccc(NC(=O)c2ccc(-c3nn4c(c3C(N)=O)Nc3ccc(N5CCN(CC6CCN(c7ccc(N8CCC(=O)N(COC(=O)C(C)(C)C)C8=O)cc7)CC6)CC5)cc3CC4)c(F)c2C)n1 [Example B78, (3-(4-(4-((4-(3-carbamoyl-2-(2-fluoro-3-methyl-4-((6-methylpyridin-2-yl)carbamoyl)phenyl)-9,10-dihydro-4H-benzo[d]pyrazolo[1,5-a][1,3]diazepin-7-yl)piperazin-1-yl)methyl)piperidin-1-yl)phenyl)-2,6-dioxotetrahydropyrimidin-1(2H)-yl)methyl pivalate] | 6.27 nM | > 10000 nM
3 | Cc1cc(C(=O)Nc2cc(C(F)(F)F)ccn2)ccc1-c1nn2c(c1C(N)=O)Nc1ccc(N3CCN(CC4CCN(c5ccc(N6CCC(=O)NC6=O)cc5)CC4)CC3)cc1CC2 [Example B6, 7-(4-((1-(4-(2,4-dioxotetrahydropyrimidin-1(2H)-yl)phenyl)piperidin-4-yl)methyl)piperazin-1-yl)-2-(2-methyl-4-((4-(trifluoromethyl)pyridin-2-yl)carbamoyl)phenyl)-9,10-dihydro-4H-benzo[d]pyrazolo[1,5-a][1,3]diazepine-3-carboxamide] | 2.22 nM | > 10000 nM
4 | Cc1nc(NC(=O)c2ccc(-c3nn4c(c3C(N)=O)Nc3ccc(N5CCN(CC6CN(c7ccc(N8CCC(=O)NC8=O)cc7)C6)CC5)cc3CC4)c(F)c2C)ccc1Cl [Example B53, 2-(4-((5-chloro-6-methylpyridin-2-yl)carbamoyl)-2-fluoro-3-methylphenyl)-7-(4-((1-(4-(2,4-dioxotetrahydropyrimidin-1(2H)-yl)phenyl)azetidin-3-yl)methyl)piperazin-1-yl)-9,10-dihydro-4H-benzo[d]pyrazolo[1,5-a][1,3]diazepine-3-carboxamide] | 18.6 nM | > 10000 nM

Second part, led by results:

Row | DC50 (BTK) | Structure (SMILES) | IC50 (HEK-293 cells)
5 | 0.594 nM | Cc1cc(C)nc(NC(=O)c2ccc(-c3nn4c(c3C(N)=O)Nc3ccc(N5CCN(CC6CCN(c7ccc(N8CCC(=O)NC8=O)cc7)CC6)CC5)cc3CC4)cc2C)c1 [Example B23, 2-(4-((4,6-dimethylpyridin-2-yl)carbamoyl)-3-methylphenyl)-7-(4-((1-(4-(2,4-dioxotetrahydropyrimidin-1(2H1)-yl)phenyl)piperidin-4-yl)methyl)piperazin-1-yl)-9,10-dihydro-4H-benzo[d]pyrazolo[1,5a][1,3]diazepine-3-carboxamide] | > 10000 nM
6 | 9.23 nM | NC(=O)c1c(-c2ccc(Oc3ccccc3)cc2)nn2c1Nc1cc(C3CCN(CCC4CCN(c5ccc(N6CCC(=O)NC6=O)cc5)CC4)CC3)ccc1CC2 [Example A23, 6-(1-(2-(1-(4-(2,4-dioxotetrahydropyrimidin-1(2H)-yl)phenyl)piperidin-4-yl)ethyl)piperidin-4-yl)-2-(4-phenoxyphenyl)-9,10-dihydro-4H-benzo[d]pyrazolo[1,5-a] [1,3]diazepine-3-carboxamide] | 445 nM
7 | 0.469 nM | Cc1cccc(NC(=O)c2ccc(-c3nn4c(c3C(N)=O)Nc3ccc(N5CCN(CC6CCN(c7ccc(N8CCC(=O)NC8=O)cc7)CC6)CC5)cc3CC4)c(Cl)c2)n1 [Example B20, 2-(2-chloro-4-((6-methylpyridin-2-yl)carbamoyl)phenyl)-7-(4-((1-(4-(2,4-dioxotetrahydropyrimidin-1(2H)-yl)phenyl)piperidin-4-yl)methyl)piperazin-1-yl)-9,10-dihydro-4H-benzo[d]pyrazolo[1,5-a][1,3]diazepine-3-carboxamide] | > 10000 nM
